Experimental findings from US9156827B2, “Anticancer agent” (THE UNIVERSITY OF TOKYO, priority 2010, dated 2015) are described below.

In one assay the target is pim-1 kinase (Homo sapiens, UniProt P11309). Kind of assay: Measurement of pim-1 kinase inhibitory activity (fluorescent substrate peptide, capillary electrophoresis). Format: biochemical. Conditions: 0.1 μM of each compound, 30 μM ATP, 1.5 μM substrate peptide, room temperature 2 hours. On the procedure:
Measurement of Pim-1 Kinase Inhibitory Activity
The result of the reaction was determined by quantifying the substrate and the phosphorylated reaction product separated by capillary electrophoresis based on difference in charges of the substances (EZ Reader II, Caliper Life Sciences, was used).

The test system of assay [1] is human acute myeloid leukemia MV4.11 cells. The assay can be described thus: Cell proliferation-suppressing activity, fluorescence method (Alamar Blue assay). Format: cell-based. Conditions: 48 h, compound 1 μM, Alamar Blue assay two days after inoculation, Table 5. The method, then:
Measurement of Cell Proliferation-Suppressing Activity (Fluorescence Method)
Each compound was added to a 96-well microtiter plate at a final concentration of 1 μM, then human acute myeloid leukemia MV4.11 cells (10^4 cells) were inoculated, and the Alamar Blue assay was performed two days after the inoculation (measurement of fluorescence: Ex. 535 nm, Em. 590 nm) to measure cell proliferation-suppressing activity.
In general terms: Alamar Blue is a resazurin reagent that responds to reducing activity.

In assay [2] the test system is Human acute myeloid leukemia MV4-11 cells. The assay can be described thus: Cell proliferation-suppressing activity, chromogenic method (MTT assay). The assay is classed as cell-based. Conditions: 72 h, compound 1 μM, MTT assay three days after addition. On the procedure:
Measurement of Cell Proliferation-Suppressing Activity (Chromogenic Method)
Human acute myeloid leukemia MV4-11 cells (10^4 cells) were inoculated on a 96-well microtiter plate, each compound was added at a final concentration of 1 μM 24 hours afterward, and MTT assay was performed three days after the addition of the compound to measure the cell proliferation-suppressing activity.

Where a name gives a salt, the structure may show the parent alone.

As usually defined, the inhibition is the drop in the measured response relative to a control, in per cent. Lower therefore signals little suppression.

pim-1 kinase, sequence (P11309 whole entry): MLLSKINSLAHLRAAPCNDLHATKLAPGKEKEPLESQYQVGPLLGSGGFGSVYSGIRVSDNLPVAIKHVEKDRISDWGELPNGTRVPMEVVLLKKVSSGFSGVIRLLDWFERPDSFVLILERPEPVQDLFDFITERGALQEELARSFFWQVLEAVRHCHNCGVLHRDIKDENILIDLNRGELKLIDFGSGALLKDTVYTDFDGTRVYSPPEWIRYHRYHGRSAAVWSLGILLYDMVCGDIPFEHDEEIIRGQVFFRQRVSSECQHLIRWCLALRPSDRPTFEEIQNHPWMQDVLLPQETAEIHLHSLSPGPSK

On pim-1 kinase (Table 1), `O=C1/C(=C/c2c[nH]c3ccccc23)Oc2c1cc(Cl)c(O)c2CN1CCNCC1` [Compound A12, (Z)-2-[(1H-Indol-3-yl)methylene]-5-chloro-6-hydroxy-7-(piperazin-1-ylmethyl)benzofuran-3(2H)-one dihydrochloride] showed an inhibition at 0.1 µM of 81%. For the same molecule, in assay [1], the inhibition at 1 µM worked out at 87%.
The matching figures for `Cc1ccc2[nH]cc(/C=C3\Oc4c(ccc(O)c4CN4CCNCC4)C3=O)c2c1` [Compound A18, (Z)-6-Hydroxy-2-[(5-methyl-1H-indol-3-yl)methylene]-7-(piperazin-1-ylmethyl)benzofuran-3(2H)-one dihydrochloride]: 95% and 71%.
As to `O=C1/C(=C/c2c[nH]c3ccc(Br)cc23)Oc2c1ccc(O)c2CN1CCNCC1` [Compound A22, (Z)-2-[(5-Bromo-1H-indol-3-yl)methylene]-6-hydroxy-7-(piperazin-1-ylmethyl)benzofuran-3(2H)-one dihydrochloride], at pim-1 kinase (Table 1), the inhibition at 0.1 µM turned out to be 94%. This molecule gave an inhibition at 1 µM in assay [2] (Table 3) of 70%.
At pim-1 kinase (Table 1), `Nc1ccc2c(/C=C3\Oc4c(ccc(O)c4CN4CCNCC4)C3=O)c[nH]c2c1` [Compound A25, (Z)-2-[(6-Amino-1H-indol-3-yl)methylene]-6-hydroxy-7-(piperazin-1-ylmethyl)benzofuran-3(2H)-one trihydrochloride] registered an inhibition at 0.1 µM of 83%. The inhibition at 1 µM in assay [1] amounted to 20%.
The matching figures for `Cc1ccc(S(=O)(=O)n2cc(/C=C3\Oc4c(ccc(O)c4CN4CCNCC4)C3=O)c3ccccc32)cc1` [Compound A33, (Z)-6-Hydroxy-7-(piperazin-1-ylmethyl)-2-[(1-tosyl-1H-indol-3-yl)methylene]benzofuran-3(2H)-one dihydrochloride]: 94% and 32%.
For `O=C1/C(=C/c2cn(S(=O)(=O)c3ccc(C(F)(F)F)cc3)c3ccccc23)Oc2c1ccc(O)c2CN1CCNCC1` [Compound A34, (Z)-6-Hydroxy-7-(piperazin-1-ylmethyl)-2-({1-[4-(trifluoromethyl)phenylsulfonyl]-1H-indol-3-yl}methylene)benzofuran-3(2H)-one dihydrochloride], in that order: 98% and 58%.
For `O=C1/C(=C/c2cn(S(=O)(=O)c3ccc(Cl)cc3)c3ccccc23)Oc2c1ccc(O)c2CN1CCNCC1` [Compound A35, (Z)-{[1-(4-Chlorophenylsulfonyl)-1H-indol-3-yl]methylene}-6-hydroxy-7-(piperazin-1-ylmethyl)benzofuran-3(2H)-one dihydrochloride], in that order: 96% and 48%.
Turning to `C[C@H]1CNCCN1Cc1c(O)ccc2c1O/C(=C\c1n[nH]c3ccccc13)C2=O` [Compound B3, (Z)-2-[(1H-Indazol-3-yl)methylene]-6-hydroxy-7-{[2-(S)-methylpiperazin-1-yl]methyl}benzofuran-3(2H)-one], at pim-1 kinase (Table 2), testing at 0.1 µM gave an inhibition of 79%. In assay [2] (Table 4), this molecule returned an inhibition at 1 µM of 79%.
Consider `CC(c1c(O)ccc2c1O/C(=C\c1n[nH]c3ccccc13)C2=O)N1CCNCC1` (stereo not shown) [Compound B7, (Z)-2-[(1H-Indazol-3-yl)methylene]-6-hydroxy-7-[1-(piperazin-1-yl)ethyl]benzofuran-3(2H)-one], for which, on pim-1 kinase (Table 2), the inhibition at 0.1 µM came out at 86%. For the same molecule, 1 µM produced 88% inhibition in assay [2] (Table 4).
The matching figures for `COc1ccc2c(c1CN1CCNCC1)O/C(=C\c1n[nH]c3ccccc13)C2=O` [Compound B17, (Z)-2-[(1H-Indazol-3-yl)methylene]-6-methoxy-7-(piperazin-1-ylmethyl)benzofuran-3(2H)-one]: 100% and 93%.
The matching figures for `COc1ccc2c(c1CN1CCNCC1)O/C(=C\c1n[nH]c3ccc(Cl)cc13)C2=O` [Compound B18, (Z)-2-[(5-Chloro-1H-indazol-3-yl)methylene]-6-methoxy-7-(piperazin-1-ylmethyl)benzofuran-3(2H)-one]: 95% and 87%.
For `COc1ccc2c(c1CN1CCNCC1)O/C(=C\c1n[nH]c3ccc(Br)cc13)C2=O` [Compound B19, (Z)-2-[(5-Bromo-1H-indazol-3-yl)methylene]-6-methoxy-7-(piperazin-1-ylmethyl)benzofuran-3(2H)-one], in that order: 100% and 94%.
On pim-1 kinase (Table 2), `COCCOc1ccc2c(c1CN1CCNCC1)O/C(=C\c1n[nH]c3ccccc13)C2=O` [Compound B21, (Z)-2-[(1H-Indazol-3-yl)methylene]-6-(2-methoxyethoxy)-7-(piperazin-1-ylmethyl)benzofuran-3(2H)-one] returned an inhibition at 0.1 µM of 97%. Moreover, 1 µM produced 94% inhibition in assay [2] (Table 4).
The matching figures for `CCOc1ccc2c(c1CN1CCNCC1)O/C(=C\c1n[nH]c3ccccc13)C2=O` [Compound B22, (Z)-2-[(1H-Indazol-3-yl)methylene]-6-ethoxy-7-(piperazin-1-ylmethyl)benzofuran-3(2H)-one]: 96% and 90%.
The matching figures for `CCCOc1ccc2c(c1CN1CCNCC1)O/C(=C\c1n[nH]c3ccccc13)C2=O` [Compound B23, (Z)-2-[(1H-Indazol-3-yl)methylene]-7-(piperazin-1-ylmethyl)-6-propoxybenzofuran-3(2H)-one]: 93% and 90%.
The matching figures for `CCCCOc1ccc2c(c1CN1CCNCC1)O/C(=C\c1n[nH]c3ccccc13)C2=O` [Compound B24, (Z)-2-[(1H-Indazol-3-yl)methylene]-6-butoxy-7-(piperazin-1-ylmethyl)benzofuran-3(2H)-one]: 88% and 89%.
At pim-1 kinase (Table 2), `CC(C)Oc1ccc2c(c1CN1CCNCC1)O/C(=C\c1n[nH]c3ccccc13)C2=O` [Compound B25, (Z)-2-[(1H-Indazol-3-yl)methylene]-6-isopropoxy-7-(piperazin-1-ylmethyl)benzofuran-3(2H)-one] gave an inhibition at 0.1 µM of 97%. In addition, testing at 1 µM in assay [2] (Table 4) gave an inhibition of 91%.
In turn, `CC(C)COc1ccc2c(c1CN1CCNCC1)O/C(=C\c1n[nH]c3ccccc13)C2=O` [Compound B26, (Z)-2-[(1H-Indazol-3-yl)methylene]-6-isobutoxy-7-(piperazin-1-ylmethyl)benzofuran-3(2H)-one] came in with an inhibition at 0.1 µM at pim-1 kinase (Table 2) of 78%. In addition, in assay [2] (Table 4), 1 µM produced 86% inhibition.
The matching figures for `O=C1/C(=C/c2n[nH]c3ccccc23)Oc2c1ccc(OCC1CC1)c2CN1CCNCC1` [Compound B27, (Z)-2-[(1H-Indazol-3-yl)methylene]-6-(cyclopropylmethoxy)-7-(piperazin-1-ylmethyl)benzofuran-3(2H)-one]: 91% and 89%.
Take `O=C1/C(=C/c2n[nH]c3ccccc23)Oc2c1ccc(OC1CCOCC1)c2CN1CCNCC1` [Compound B29, (Z)-2-[(1H-Indazol-3-yl)methylene]-7-(piperazin-1-ylmethyl)-6-(tetrahydro-2H-pyran-4-yloxy)benzofuran-3(2H)-one]: the inhibition at 0.1 µM at pim-1 kinase (Table 2) turned out to be 82%. This molecule also came in with an inhibition at 1 µM in assay [2] (Table 4) of 90%.
As to `O=C1/C(=C/c2n[nH]c3ccccc23)Oc2c1ccc(OCCc1ccccc1)c2CN1CCNCC1` [Compound B30, (Z)-2-[(1H-Indazol-3-yl)methylene]-6-phenethoxy-7-(piperazin-1-ylmethyl)benzofuran-3(2H)-one], the inhibition at 0.1 µM against pim-1 kinase (Table 2) is 89%. In assay [2] (Table 4), 1 µM produced 78% inhibition.
For `O=C1/C(=C/c2n[nH]c3ccccc23)Oc2c1ccc(OCCOc1ccccc1)c2CN1CCNCC1` [Compound B31, (Z)-2-((1H-Indazol-3-yl)methylene)-6-(2-phenoxyethoxy)-7-(piperazin-1-ylmethyl)benzofuran-3(2H)-one], in that order: 95% and 84%.
For `COc1ccc2c(c1OC1CCNCC1)O/C(=C\c1n[nH]c3ccccc13)C2=O` [Compound B35, (Z)-2-[(1H-Indazol-3-yl)methylene]-6-methoxy-7-(piperidin-4-yloxy)benzofuran-3(2H)-one], in that order: 97% and 95%.
For `COc1ccc2c(c1C(=O)N1CCNCC1)O/C(=C\c1n[nH]c3ccccc13)C2=O` [Compound B37, (Z)-2-[(1H-Indazol-3-yl)methylene]-6-methoxy-7-(piperazine-1-carbonyl)benzofuran-3(2H)-one], in that order: 85% and 76%.
`COc1cc2c(c(CN3CCNCC3)c1OC)O/C(=C\c1n[nH]c3ccccc13)C2=O` [Compound B38, (Z)-2-[(1H-Indazol-3-yl)methylene]-5,6-dimethoxy-7-(piperazin-1-ylmethyl)benzofuran-3(2H)-one]: on pim-1 kinase (Table 2), the inhibition at 0.1 µM was found to be 87%. Further, the inhibition at 1 µM in assay [2] (Table 4) turned out to be 95%.
For `O=C1/C(=C/c2n[nH]c3ccccc23)Oc2c1cc1c(c2CN2CCNCC2)OCO1` [Compound B39], in that order: 95% and 92%.
